According to patent US9365576B2, “Pyrrolopyrrolidinone compounds” (Novartis AG, priority 2012, dated 2016):

Each molecule was assayed against human MDM4 protein (amino acids 2-185) (Homo sapiens (Human), UniProt O15151) (assay: TR-FRET assay, p53-MDM4 Assay 1). Conditions: 2.5 nM MDM4-biotinylated, 10 nM Cy5-p53 peptide.
Assay type: binding
Experimental: (§1) The inhibition of p53-MDM2 and p53-MDM4 interactions is measured by time resolved fluorescence energy transfer (TR-FRET). Fluorescence energy transfer (or Foerster resonance energy transfer) describes an energy transfer between donor and acceptor fluorescent molecules. For this assay, human MDM2 protein (amino acids 2-188) and human MDM4 protein (amino acids 2-185), tagged with a C-terminal biotin moiety, are used in combination with a Europium labeled streptavidin (Perkin Elmer, Inc., Waltham, Mass., USA) serving as the donor fluorophore. The p53 derived, Cy5 labeled peptide Cy5-TFSDLWKLL (p53 aa18-26) is the energy acceptor. Upon excitation of the donor molecule at 340 nm, binding interaction between MDM2 or MDM4 and the p53 peptide induces energy transfer and enhanced response at the acceptor emission wavelength at 665 nm. Disruption of the formation of the p53-MDM2 or p53-MDM4 complex due to an inhibitor molecule binding to the p53 binding site of MDM2 or MDM4 results in increased donor emission at 620 nm. The ratiometric FRET assay readout is calculated from the raw data of the two distinct fluorescence signals measured in time resolved mode (fluorescence 665 nm/fluorescence 620 nm×1000).
(§2) After addition of 1.25 nM MDM2-biotinylated or 2.5 nM MDM4-biotinylated (internal preparations), and 0.625 nM Europium labeled streptavidin (Perkin Elmer), the solution is pre-incubated for 15 minutes at room temperature, then 10 nM Cy5-p53 peptide (internal preparation) is added before an incubation at room temperature for 15 minutes prior to reading the plate. For measurement of samples, a Victor II microplate reader (Perkin Elmer) is used with the following settings: Excitation 340 nm, Emission Donor 620 nm and Emission Acceptor 665 nm. IC50 values are calculated by curve fitting using XLfit. If not specified, reagents are purchased from Sigma-Aldrich Chemie GmBH, Buchs, Switzerland.
(§3) This assay was used to evaluate compounds displaying inhibition of p53-MDM2 interaction and p53-MDM4 interaction at IC50s of 0.005 to 50 μM (p53-MDM2 Assay 1 and p53-MDM4 Assay 1, respectively). For selected compounds displaying IC50s between […] on MDM2, a slightly modified assay is used with the following adaptations: 0.1 nM MDM2, 0.1 nM Europium labeled streptavidin and Tecan genios Pro is used as a microplate reader for the fluorescence measurements (p53-MDM2 Assay 2).

Chain of human MDM4 protein (amino acids 2-185) (O15151 2-185): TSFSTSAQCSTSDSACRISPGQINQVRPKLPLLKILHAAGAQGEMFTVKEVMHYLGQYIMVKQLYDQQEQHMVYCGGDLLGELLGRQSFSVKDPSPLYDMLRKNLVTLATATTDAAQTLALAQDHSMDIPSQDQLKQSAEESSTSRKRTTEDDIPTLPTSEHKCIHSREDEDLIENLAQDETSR

| IC50 | SMILES |
| --- | --- |
| 27800 nM | COc1ccccc1-c1cc2c(n1C(C)C)C(c1ccc(Cl)cc1C)N(c1cccc(Cl)c1F)C2=O (stereo not drawn) [Example 1, 5-(3-Chloro-2-fluoro-phenyl)-6-(4-chloro-2-methyl-phenyl)-1-isopropyl-2-(2-methoxy-phenyl)-5,6-dihydro-1H-pyrrolo[3,4-b]pyrrol-4-one] |
| 54200 nM | COc1ccc(F)cc1-c1cc2c(n1C(C)C)C(c1ccc(Cl)cc1C)N(c1cccc(Cl)c1F)C2=O (stereo not drawn) [Example 3, 5-(3-Chloro-2-fluoro-phenyl)-6-(4-chloro-2-methyl-phenyl)-2-(5-fluoro-2-methoxy-phenyl)-1-isopropyl-5,6-dihydro-1H-pyrrolo[3,4-b]pyrrol-4-one] |
| 77600 nM | COc1ncc(-c2cc3c(n2C2CC2)C(c2ccc(Cl)cc2)N(c2cc(C)c(=O)n(C)c2)C3=O)c(OC)n1 (stereo not drawn) [Example 240, 6-(4-Chlorophenyl-1)-1-cyclopropyl-2-(2,4-dimethoxypyrimidin-5-yl)-5-(1,5-dimethyl-6-oxo-1,6-dihydropyridin-3-yl)-5,6-dihydropyrrolo[3,4-b]pyrrol-4(1H)-one] |
| > 100000 nM | COc1ncc(-c2cc3c(n2C2CC2)C(c2ccc(Cl)cc2)N(c2cc(C)c(=O)n(C)c2)C3=O)cn1 (stereo not drawn) [Example 241, 6-(4-Chlorophenyl)-1-cyclopropyl-5-(1,5-dimethyl-6-oxo-1,6-dihydropyridin-3-yl)-2-(2-methoxypyrimidin-5-yl)-5,6-dihydropyrrolo[3,4-b]pyrrol-4(1H)-one] |

What follows are molecules tested against T1, human MDM2 protein (amino acids 2-188) (Homo sapiens (Human), UniProt Q00987) (assay: TR-FRET assay, p53-MDM2 Assay 1). Conditions: 1.25 nM MDM2-biotinylated, 10 nM Cy5-p53 peptide.
T1 sequence (Q00987 2-188): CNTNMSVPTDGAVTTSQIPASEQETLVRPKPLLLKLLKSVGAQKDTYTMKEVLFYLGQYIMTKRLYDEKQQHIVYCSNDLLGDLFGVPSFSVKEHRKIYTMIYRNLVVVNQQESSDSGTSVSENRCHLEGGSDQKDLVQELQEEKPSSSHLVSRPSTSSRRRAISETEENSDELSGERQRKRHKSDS
Assay type: binding
Experimental: as §1, §2, §3

| IC50 | SMILES |
| --- | --- |
| 9.5 nM | COc1ccccc1-c1cc2c(n1C(C)C)C(c1ccc(Cl)cc1C)N(c1cccc(Cl)c1F)C2=O (stereo not drawn) [Example 1, 5-(3-Chloro-2-fluoro-phenyl)-6-(4-chloro-2-methyl-phenyl)-1-isopropyl-2-(2-methoxy-phenyl)-5,6-dihydro-1H-pyrrolo[3,4-b]pyrrol-4-one] |
| 6 nM | COc1ccc(F)cc1-c1cc2c(n1C(C)C)C(c1ccc(Cl)cc1C)N(c1cccc(Cl)c1F)C2=O (stereo not drawn) [Example 3, 5-(3-Chloro-2-fluoro-phenyl)-6-(4-chloro-2-methyl-phenyl)-2-(5-fluoro-2-methoxy-phenyl)-1-isopropyl-5,6-dihydro-1H-pyrrolo[3,4-b]pyrrol-4-one] |
| 33.3 nM | COc1ncc(-c2cc3c(n2C2CC2)C(c2ccc(Cl)cc2)N(c2cc(C)c(=O)n(C)c2)C3=O)c(OC)n1 (stereo not drawn) [Example 240, 6-(4-Chlorophenyl-1)-1-cyclopropyl-2-(2,4-dimethoxypyrimidin-5-yl)-5-(1,5-dimethyl-6-oxo-1,6-dihydropyridin-3-yl)-5,6-dihydropyrrolo[3,4-b]pyrrol-4(1H)-one] |
| 3920 nM | COc1ncc(-c2cc3c(n2C2CC2)C(c2ccc(Cl)cc2)N(c2cc(C)c(=O)n(C)c2)C3=O)cn1 (stereo not drawn) [Example 241, 6-(4-Chlorophenyl)-1-cyclopropyl-5-(1,5-dimethyl-6-oxo-1,6-dihydropyridin-3-yl)-2-(2-methoxypyrimidin-5-yl)-5,6-dihydropyrrolo[3,4-b]pyrrol-4(1H)-one] |

What follows are molecules tested against T1, human MDM2 protein (amino acids 2-188) (assay: TR-FRET assay, p53-MDM2 Assay 2 (modified)). Conditions: TR-FRET; 0.1 nM MDM2, 0.1 nM Europium labeled streptavidin, Tecan genios Pro reader; read-out: IC50 p53-MDM2 Assay 2.
Assay type: binding
Summary of the method: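 Biotinylated human MDM2 (aa 2–188, 1.25 nM) was preincubated 15 min at room temperature with 0.625 nM Eu-streptavidin, then 10 nM Cy5-p53 peptide (aa 18–26) added for 15 min. TR-FRET ratio 665/620 nm (excitation 340 nm) was read; IC50 came from curve fitting.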

| SMILES | IC50 |
| --- | --- |
| COc1nc(N(C)C)ncc1-c1cc2c(n1C(C)C)[C@@H](c1ccc(Cl)c(F)c1)N(c1cc(Cl)c[nH]c1=O)C2=O [Example 228, (R)-6-(4-Chloro-3-fluoro-phenyl)-5-(5-chloro-2-oxo-1,2-dihydro-pyridin-3-yl)-2-(2-dimethylamino-4-methoxy-pyrimidin-5-yl)-1-isopropyl-5,6-dihydro-1H-pyrrolo[3,4-b]pyrrol-4-one] | 48.7 nM |
| COC[C@@H](C)n1c(-c2cnc(N)nc2OC)cc2c1[C@@H](c1ccc(Cl)cc1)N(c1ccc(F)c(Cl)c1)C2=O [Example 230, (R)-2-(2-Amino-4-methoxy-pyrimidin-5-yl)-5-(3-chloro-4-fluoro-phenyl)-6-(4-chloro-phenyl)-1-((R)-2-methoxy-1-methyl-ethyl)-5,6-dihydro-1H-pyrrolo[3,4-b]pyrrol-4-one] | 281 nM |
| COc1nc(N(C)C)ncc1-c1cc2c(n1C(C)C)[C@@H](c1ccc(C#N)cc1)N(c1cc(Cl)c(=O)n(C)c1)C2=O [Example 233, (R)-4-(5-(5-Chloro-1-methyl-6-oxo-1,6-dihydropyridin-3-yl)-2-(2-(dimethylamino)-4-methoxypyrimidin-5-yl)-1-isopropyl-4-oxo-1,4,5,6-tetrahydropyrrolo[3,4-b]pyrrol-6-yl)benzonitrile] | 60.2 nM |
| COc1ncc(-c2cc3c(n2C(C)C)C(c2ccc(Cl)cn2)N(c2cc(Cl)ccc2C)C3=O)c(OC)n1 (stereo not drawn) [Example 235, 5-(5-Chloro-2-methylphenyl)-6-(5-chloropyridin-2-yl)-2-(2,4-dimethoxypyrimidin-5-yl)-1-isopropyl-1-5,6-dihydropyrrolo[3,4-b]pyrrol-4(1H)-one] | 7.16 nM |
| COc1ncc(-c2cc3c(n2C(C)C)[C@@H](c2ccc(C#N)c(F)c2)N(c2cc(Cl)c(=O)n(C)c2)C3=O)c(OC)n1 [Example 238, (R)-4-(5-(5-Chloro-1-methyl-6-oxo-1,6-dihydropyridin-3-yl)-2-(2,4-dimethoxypyrimidin-5-yl)-1-isopropyl-4-oxo-1,4,5,6-tetrahydropyrrolo[3,4-b]pyrrol-6-yl)-2-fluorobenzonitrile] | 126 nM |

Second part, the molecule after the results:

| IC50 | SMILES |
| --- | --- |
| 2.98 nM | COc1ncncc1-c1cc2c(n1C(C)C)C(c1ccc(C#N)cc1)N(c1cc(Cl)c(=O)n(C)c1)C2=O (stereo not drawn) [Example 236, 4-(5-(5-Chloro-1-methyl-6-oxo-1,6-dihydropyridin-3-yl)-1-isopropyl-2-(4-methoxypyrimidin-5-yl)-4-oxo-1,4,5,6-tetrahydropyrrolo[3,4-b]pyrrol-6-yl)benzonitrile] |
| 1.16 nM | COc1ncc(-c2cc3c(n2C(C)C)C(c2ccc(Cl)cc2)N(c2cc(C)cn(C)c2=O)C3=O)c(OC)n1 (stereo not drawn) [Example 239, 6-(4-Chlorophenyl-1)-2-(2,4-dimethoxypyrimidin-5-yl)-5-(1,5-dimethyl-2-oxo-1,2-dihydropyridin-3-yl)-1-isopropyl-5,6-dihydropyrrolo[3,4-b]pyrrol-4(1H)-one] |
| 0.657 nM | COc1nc(N(C)C)ncc1-c1cc2c(n1C(C)C)C(c1ccc(Cl)cn1)N(c1cccc(Cl)c1F)C2=O (stereo not drawn) [Example 234, 5-(3-Chloro-2-fluorophenyl)-6-(5-chloropyridin-2-yl)-2-(2-(dimethylamino)-4-methoxypyrimidin-5-yl)-1-isopropyl-5,6-dihydropyrrolo[3,4-b]pyrrol-4(1H)-one] |
| 0.362 nM | COC[C@@H](C)n1c(-c2cnc(N)nc2OC)cc2c1C(c1ccc(Cl)cc1)N(c1ccc(F)c(Cl)c1)C2=O (stereo partly drawn) [Example 224, (R,S)-2-(2-Amino-4-methoxy-pyrimidin-5-yl)-5-(3-chloro-4-fluoro-phenyl)-6-(4-chloro-phenyl)-1-((R)-2-methoxy-1-methyl-ethyl)-5,6-dihydro-1H-pyrrolo[3,4-b]pyrrol-4-one] |
| 0.277 nM | COC[C@@H](C)n1c(-c2cnc(OC)nc2OC)cc2c1C(c1ccc(Cl)cc1)N(c1cc(Cl)c(=O)n(C)c1)C2=O (stereo partly drawn) [Example 225] |
| 0.224 nM | COc1nc(N(C)C)ncc1-c1cc2c(n1C(C)C)C(c1ccc(C#N)cc1)N(c1c(F)c(C)nn1C)C2=O (stereo not drawn) [Example 231, 4-(2-(2-(Dimethylamino)-4-methoxypyrimidin-5-yl)-5-(4-fluoro-1,3-dimethyl-1H-pyrazol-5-yl)-1-isopropyl-4-oxo-1,4,5,6-tetrahydropyrrolo[3,4-b]ppyrrol-6-yl)benzonitrile] |
| 0.132 nM | COc1nc(N(C)C)ncc1-c1c(C(=O)O)c2c(n1C(C)C)C(c1ccc(Cl)cc1)N(c1cc(Cl)c(=O)n(C)c1)C2=O (stereo not drawn) [Example 226, 5-(5-Chloro-1-methyl-6-oxo-1,6-dihydro-pyridin-3-yl)-6-(4-chloro-phenyl)-2-(2-dimethylamino-4-methoxy-pyrimidin-5-yl)-1-isopropyl-4-oxo-1,4,5,6-tetrahydro-pyrrolo[3,4-b]pyrrole-3-carboxylic acid] |
| 0.107 nM | COc1ncc(-c2cc3c(n2C(C)C)[C@H](c2ccc(C#N)c(F)c2)N(c2cc(Cl)c(=O)n(C)c2)C3=O)c(OC)n1 [Example 237, (S)-4-(5-(5-Chloro-1-methyl-6-oxo-1,6-dihydropyridin-3-yl)-2-(2,4-dimethoxypyrimidin-5-yl)-1-isopropyl-4-oxo-1,4,5,6-tetrahydropyrrolo[3,4-b]pyrrol-6-yl)-2-fluorobenzonitrile] |
| 0.078 nM | COC[C@@H](C)n1c(-c2cnc(N)nc2OC)cc2c1[C@H](c1ccc(Cl)cc1)N(c1ccc(F)c(Cl)c1)C2=O [Example 229] |
| 0.071 nM | COc1nc(N(C)C)ncc1-c1cc2c(n1C(C)C)[C@H](c1ccc(Cl)c(F)c1)N(c1cc(Cl)c[nH]c1=O)C2=O [Example 227, (S)-6-(4-Chloro-3-fluoro-phenyl)-5-(5-chloro-2-oxo-1,2-dihydro-pyridin-3-yl)-2-(2-dimethylamino-4-methoxy-pyrimidin-5-yl)-1-isopropyl-5,6-dihydro-1H-pyrrolo[3,4-b]pyrrol-4-one] |
| 0.069 nM | COc1nc(N(C)C)ncc1-c1cc2c(n1C(C)C)[C@H](c1ccc(C#N)cc1)N(c1cc(Cl)c(=O)n(C)c1)C2=O [Example 232, (S)-4-(5-(5-Chloro-1-methyl-6-oxo-1,6-dihydropyridin-3-yl)-2-(2-(dimethylamino)-4-methoxypyrimidin-5-yl)-1-isopropyl-4-oxo-1,4,5,6-tetrahydropyrrolo[3,4-b]pyrrol-6-yl)benzonitrile] |
